Like-named read-outs stand apart in the source and are kept apart here.
Columns and labels:
[1] = target: T1, 5-HT2B receptor (Homo sapiens, UniProt P41595); assay: Binding affinity (pKi) by competitive inhibition of [3H]LSD at 5-HT2B; conditions: for Ki: pKi at 5-HT2B
[2] = target: T2, 5-HT2C (Homo sapiens, UniProt P28335); assay: Primary screening: inhibition of radioligand binding at 5-HT2C (NIMH PDSP)
T2 sequence (P28335 33-458): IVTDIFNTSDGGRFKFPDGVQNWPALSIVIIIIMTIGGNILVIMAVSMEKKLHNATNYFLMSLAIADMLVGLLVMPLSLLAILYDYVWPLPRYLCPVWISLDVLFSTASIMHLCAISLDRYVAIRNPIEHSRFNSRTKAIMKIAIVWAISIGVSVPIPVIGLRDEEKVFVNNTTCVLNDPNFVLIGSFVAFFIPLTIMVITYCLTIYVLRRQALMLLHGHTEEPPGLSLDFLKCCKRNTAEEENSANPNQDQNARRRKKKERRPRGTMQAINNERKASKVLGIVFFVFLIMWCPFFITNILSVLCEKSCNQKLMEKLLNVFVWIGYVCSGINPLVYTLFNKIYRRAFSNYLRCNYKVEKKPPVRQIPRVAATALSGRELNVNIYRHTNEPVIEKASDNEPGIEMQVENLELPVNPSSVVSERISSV

[3] = target: T1, 5-HT2B receptor; assay: Primary screening: inhibition of radioligand binding at 5-HT2B (NIMH PDSP)
[4] = target: 5-HT2A (Homo sapiens, UniProt P28223); assay: Primary screening: inhibition of radioligand binding at 5-HT2A (NIMH PDSP)
[5] = target: T1, 5-HT2B receptor; assay: Calcium mobilization assay in Flp-In HEK cells (agonist/antagonist functional activity); conditions: compound at 10 μM
[6] = target: T2, 5-HT2C; assay: Binding affinity (pKi) at 5-HT2C
[7] = read-out: % Inhibition of radioligand binding 5-HT2C
[8] = read-out: % Inhibition of radioligand binding 5-HT2B
[9] = read-out: inhibitory activity at 5-HT2B
[10] = read-out: % Inhibition of radioligand binding 5-HT2A

T1 sequence (P41595 whole entry): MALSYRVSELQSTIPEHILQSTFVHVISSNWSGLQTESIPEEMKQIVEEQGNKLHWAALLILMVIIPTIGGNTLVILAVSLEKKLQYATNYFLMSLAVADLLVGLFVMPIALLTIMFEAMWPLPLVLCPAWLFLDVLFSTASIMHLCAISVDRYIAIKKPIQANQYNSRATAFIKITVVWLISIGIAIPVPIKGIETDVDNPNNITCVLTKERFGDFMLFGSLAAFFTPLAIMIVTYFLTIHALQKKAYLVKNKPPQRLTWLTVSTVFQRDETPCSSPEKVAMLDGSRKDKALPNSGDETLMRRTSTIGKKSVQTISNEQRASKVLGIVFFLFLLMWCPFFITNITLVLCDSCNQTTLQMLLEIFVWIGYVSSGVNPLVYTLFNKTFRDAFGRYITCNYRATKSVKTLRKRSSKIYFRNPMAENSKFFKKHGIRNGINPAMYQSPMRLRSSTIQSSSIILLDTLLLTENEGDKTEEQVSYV
Chain of 5-HT2A (P28223 whole entry, species assumed): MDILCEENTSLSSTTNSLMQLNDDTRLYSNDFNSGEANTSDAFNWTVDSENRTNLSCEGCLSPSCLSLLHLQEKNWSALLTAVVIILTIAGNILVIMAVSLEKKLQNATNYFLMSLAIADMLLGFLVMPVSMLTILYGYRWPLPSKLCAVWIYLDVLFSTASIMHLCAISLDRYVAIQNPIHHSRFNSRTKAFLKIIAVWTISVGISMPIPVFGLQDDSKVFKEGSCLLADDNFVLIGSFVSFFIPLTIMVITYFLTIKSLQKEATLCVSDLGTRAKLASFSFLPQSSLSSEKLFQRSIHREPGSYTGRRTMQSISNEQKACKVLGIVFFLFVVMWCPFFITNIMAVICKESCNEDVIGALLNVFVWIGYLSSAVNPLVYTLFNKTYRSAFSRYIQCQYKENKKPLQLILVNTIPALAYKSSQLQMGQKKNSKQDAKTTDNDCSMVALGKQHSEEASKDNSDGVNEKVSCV

Structure (SMILES)	Ki ([1]; Table 7) [nM]	inhibition at 10 µM ([2]; read-out: % Inhibition 5-HT2C) [%]	inhibition at 10 µM [2, 7] [%]	inhibition at 10 µM ([3]; read-out: % Inhibition 5-HT2B) [%]	inhibition at 10 µM [3, 8] [%]	inhibition at 10 µM ([4]; read-out: % Inhibition 5-HT2A) [%]	inhibition at 10 µM [4, 10] [%]	also measured
O=c1cc(COc2ccccc2)oc2cccc(O)c12 [Compound 22a, 5-hydroxy-2-(phenoxymethyl)-4H-chromen-4-one]	> 10000	7.8	7	50	50	0.2	0.2	Ki [1]: > 10000 nM; inhibition at 10 µM [3, 9]: 50%
O=c1cc(CCc2ccccc2O)oc2cccc(O)c12 [Compound 22b, 5-hydroxy-2-(2-hydroxyphenethyl)-4H-chromen-4-one]			23.8		12.8		24.3	
O=c1cc(CCc2cccc(O)c2)oc2cccc(O)c12 [Compound 22c, 5-Hydroxy-2-(3′-hydroxy-2-phenylethyl)chromone]	1290		30.4		76.3		39	pKi at 5-HT2B [1]: 5.9; inhibition at 10 µM [3, 9]: 76%
O=c1cc(CCc2cccs2)oc2cccc(O)c12 [Compound 22e, 5-hydroxy-2-(2-(thiophen-2-yl)ethyl)-4H-chromen-4-one]	1050	19.6	19.6	74.8	74.8	1.4	1.4	Ki [1]: 1260 nM
O=c1cc(CCc2ccco2)oc2cccc(O)c12 [Compound 22f, 5-Hydroxy-2-(2-(furan-2-yl)ethyl)chromone]	1820		24.2		68.8		12.4	pKi at 5-HT2B [1]: 5.7
O=c1cc(Cc2ccccc2)oc2cccc(O)c12 [Compound 22g, 2-benzyl-5-hydroxy-4H-chromen-4-one]		24.8	24.8	30.6	30.6	1.4	1.4	
O=c1cc(CCCc2ccccc2)oc2cccc(O)c12 [Compound 22h, 5-hydroxy-2-(3-phenylpropyl)-4H-chromen-4-one]	240	7.9	7.9	70.4	70.4	5.4	5.4	pKi at 5-HT2B [1]: 6.6; antagonist activity ([5]; challenged with an EC50 dose (1.6 nM) of 5-HT): 20.5±0.5 % inhibition; agonist activity ([5]; compared to 5-HT): 0.23±0.2 % of the maximal response
O=c1cc(CCCCc2ccccc2)oc2cccc(O)c12 [Compound 22i, 5-hydroxy-2-(4-phenylbutyl)-4H-chromen-4-one]		14.7	14.7	45.2	45.2	5.7	5.7	
O=c1cc(COCc2ccccc2)oc2cccc(O)c12 [Compound 22j, 5-hydroxy-2-((benzyloxy)methyl)chromone]			42.1		77.7		3.2	pKi at 5-HT2B ([1]; Table 7): 5.8 ± 0.05; fold decrease in 5-HT2B affinity compared to 5-HPPC (22h) ([1]; relative to 5-HPPC): 6 fold; inhibition at 10 µM [3, 9]: 78%
O=c1cc(CCc2ccccc2)oc2cc(O)ccc12 [Compound 22k, 7-hydroxy-2-phenethyl-4H-chromen-4-one]			33.7		34.2		35.5	
O=c1cc(CC(O)c2ccccc2)oc2cc(O)ccc12 (stereo not drawn) [Compound 22l, 7-Hydroxy-2-(2′-hydroxy-2-phenylethyl)chromone]			44		16.6		47.9	
O=c1cc(CCc2cccc(O)c2)oc2cc(O)ccc12 [Compound 22m, 7-Hydroxy-2-(3′-hydroxy-2-phenylethyl)chromone]			0		25.3		23.2	
O=c1cc(CCc2ccc(O)cc2)oc2cc(O)ccc12 [Compound 22n, 7-Hydroxy-2-(4′-hydroxy-2-phenylethyl)chromone]			53.1		40.8		33.3	inhibition at 10 µM ([2]; read-out: inhibitory activity at 5-HT2C): 53%; Ki [6]: 2510 nM; Ki ([6]; Table 7): 2450 nM
O=c1cc(COc2ccc3ccccc3c2)oc2cccc(O)c12 [Compound 22o, 5-hydroxy-2-((naphthalen-2-yloxy)methyl)chromone]			-0.7		2.9		-3	
O=c1cc(COc2cccc3ccccc23)oc2cccc(O)c12 [Compound 22p, 5-hydroxy-2-((naphthalen-1-yloxy)methyl)chromone]			0.7		11.8		-1.1	
O=c1cc(Cc2cccc3ccccc23)oc2cccc(O)c12 [Compound 22q, 5-hydroxy-2-(naphthalen-1-ylmethyl)chromone]			2.1		17.4		9.5	
O=c1cc(Cc2cccs2)oc2cccc(O)c12 [Compound 22r, 5-hydroxy-2-(thiophen-2-ylmethyl)-4H-chromen-4-one]		23.5	23.5	31.5	31.5	-4.5	-4.5	
O=c1cc(COCCc2ccccc2)oc2cccc(O)c12 [Compound 22s, 5-hydroxy-2-(phenethoxymethyl)chromone]	1260		11.7		77.7		0.3	
